This is an account of results in ChEMBL document CHEMBL1201862, “PubChem BioAssay data set” (2004).

Some test systems named below: A498; COLO 205; HCC 2998; HOP-62; HOP-92; LOX IMVI; M14; MDA-MB-435; MDA-N; Malme-3M; NCI-H522; OVCAR-3; OVCAR-4; OVCAR-8; PC-3; SF-295; SF-539; SK-MEL-5; SNB-19; UACC-62.
Holding throughout (experiment): inhibition of tumour cell growth, NCI panel, 48 h

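Step 1: Grow cells in 96-well plates. Step 2: Expose to compound for 48 hours at 5 concentrations. Step 3: Interpolate endpoints linearly; if unreached, use highest concentration. GI50 is the concentration that inhibits growth by half.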 Calls of active or inactive are those of the source. No stated cut-off is given here; in the data, active = GI50 up to about 1.1 µM and inactive = higher.

With `O=C1/C(=C/c2ccccc2)CN(C(=O)/C=C/c2ccccc2)C/C1=C\c1ccccc1`, the GI50 in the experiment on A498 is 33.3 µM (inactive); in the experiment with COLO 205, 4.92 µM (inactive); with HCC 2998, 3.55 µM (inactive); with HOP-62 it was 23.7 µM (inactive); in the experiment on HOP-92, 25.9 µM (inactive); with LOX IMVI, 2.55 µM (inactive). Besides, the GI50 with M14 is 3.63 µM (inactive); in the experiment with MDA-MB-435, 1.93 µM (inactive); with MDA-N, 1.87 µM (inactive); in the experiment on Malme-3M, 16.1 µM (inactive); in the experiment on NCI-H522, 8.99 µM (inactive); with OVCAR-3, 7.13 µM (inactive). The GI50 with OVCAR-4 was 6.85 µM (inactive); with OVCAR-8, 4.88 µM (inactive); in the experiment on PC-3, 2.03 µM (inactive); in the experiment with SF-295, 4.79 µM (inactive); with SF-539, 9.75 µM (inactive); in the experiment with SK-MEL-5, 8.38 µM (inactive). Further, the figures for the GI50 in the experiment with SNB-19 and with UACC-62 were 8.15 µM (inactive) and 5.69 µM (inactive), respectively.

On to `CC(C)C(C/C=C1/CC(CO)(COC(=O)C2CCCCC2)OC1=O)C(C)C` (stereo not given), for which the GI50 with A498 is 20.4 µM (inactive); with COLO 205, 5.94 µM (inactive); in the experiment on HCC 2998, 26.1 µM (inactive); in the experiment on HOP-62, 11.7 µM (inactive); in the experiment with HOP-92 it was 13.6 µM (inactive); with LOX IMVI it was 14.2 µM (inactive). Further, the GI50 in the experiment with M14 was 17.3 µM (inactive); in the experiment with MDA-MB-435, 34.7 µM (inactive); in the experiment on MDA-N, 19.1 µM (inactive); in the experiment on Malme-3M, 17.3 µM (inactive); in the experiment with NCI-H522, 17.3 µM (inactive); in the experiment on OVCAR-3, 18.5 µM (inactive). The GI50 in the experiment on OVCAR-4 was 19.8 µM (inactive); in the experiment with OVCAR-8 it was 17.7 µM (inactive); in the experiment on PC-3, 17.1 µM (inactive); in the experiment on SF-295, 14.2 µM (inactive); in the experiment with SF-539, 14.2 µM (inactive); in the experiment with SK-MEL-5, 18.3 µM (inactive). Besides, the GI50 in the experiment with SNB-19 is 15 µM (inactive); in the experiment on UACC-62, 89.9 µM (inactive).

`C[N+](C)(C)CC(=O)N/N=C(\C(=O)NC1=C(Cl)C(=O)c2ccccc2C1=O)C(C#N)c1nc(-c2ccc([N+](=O)[O-])cc2)cs1` (stereo not given): the GI50 in the experiment with A498 was 16.9 µM (inactive); in the experiment on COLO 205, 17.2 µM (inactive); with HCC 2998, 14.1 µM (inactive); in the experiment with HOP-62 it was 12.7 µM (inactive); in the experiment with HOP-92, 13 µM (inactive); in the experiment on LOX IMVI it was 1.69 µM (inactive). Moreover, the GI50 is 3.15 µM (inactive) with M14; 1.87 µM (inactive) in the experiment with MDA-MB-435; 1.74 µM (inactive) with MDA-N; 1.86 µM (inactive) in the experiment on Malme-3M; 7.31 µM (inactive) in the experiment on NCI-H522; 1.02 µM (active) in the experiment with OVCAR-3. Further, the GI50 with OVCAR-4 was 10.1 µM (inactive); in the experiment on OVCAR-8 it was 9.35 µM (inactive); in the experiment on PC-3, 6.89 µM (inactive); with SF-295 it was 6.37 µM (inactive); in the experiment on SF-539, 8.38 µM (inactive); with SK-MEL-5, 1.13 µM (inactive). Also, the GI50 in the experiment on SNB-19 was 12.9 µM (inactive); with UACC-62 it was 3.83 µM (inactive).

In the case of `Nc1nc(O)c2c(n1)NCN(CCCN1CCOCC1)C2`, the GI50 in the experiment on A498, with COLO 205, with HCC 2998, in the experiment with HOP-62, in the experiment on HOP-92 and in the experiment on LOX IMVI was > 100 µM (inactive) each time. Further, the GI50 in the experiment with M14 is > 100 µM (inactive); with MDA-MB-435, > 100 µM (inactive); in the experiment on MDA-N it was > 100 µM (inactive); with Malme-3M, > 100 µM (inactive); in the experiment on NCI-H522, > 100 µM (inactive); in the experiment on OVCAR-3 it was 55.3 µM (inactive). Further, the GI50 with OVCAR-4, in the experiment with OVCAR-8, in the experiment with PC-3, with SF-295, in the experiment with SF-539 and in the experiment on SK-MEL-5 was > 100 µM (inactive) each time. The GI50 in the experiment with SNB-19 and in the experiment on UACC-62 was > 100 µM (inactive) throughout.

For `Cc1nc(-c2ccc(Cl)cc2)cn2c1nc1ccccc12`, the GI50 was > 100 µM (inactive) in the experiment with A498; > 43.3 µM (inactive) in the experiment on COLO 205; > 100 µM (inactive) in the experiment on HCC 2998; > 100 µM (inactive) in the experiment with HOP-62; > 33.1 µM (inactive) in the experiment with HOP-92; > 100 µM (inactive) in the experiment on LOX IMVI. Also, the GI50 in the experiment with M14 is > 72.3 µM (inactive); in the experiment on MDA-MB-435, > 100 µM (inactive); with MDA-N it was > 100 µM (inactive); in the experiment on Malme-3M, > 100 µM (inactive); in the experiment with NCI-H522, > 100 µM (inactive); in the experiment on OVCAR-3, > 100 µM (inactive). The GI50 in the experiment with OVCAR-4 was > 100 µM (inactive); with OVCAR-8, > 100 µM (inactive); in the experiment on PC-3, > 100 µM (inactive); in the experiment with SF-295, > 100 µM (inactive); in the experiment with SF-539, > 61.4 µM (inactive); in the experiment on SK-MEL-5, 5.14 µM (inactive). In addition, the GI50 in the experiment on SNB-19 and with UACC-62 was > 100 µM (inactive) throughout.

In the case of `O=[N+]([O-])c1cccc2nc3ccccc3c(NCCc3cccc[n+]3[O-])c12`, the GI50 is 0.0475 µM (active) in the experiment with A498; < 0.01 µM (active) in the experiment with COLO 205; < 0.01 µM (active) in the experiment on HCC 2998; < 0.0177 µM (active) in the experiment on HOP-62; < 0.0183 µM (active) in the experiment with HOP-92; 0.0299 µM (active) in the experiment on LOX IMVI. Moreover, the GI50 with M14 is < 0.0105 µM (active); with MDA-MB-435, < 0.0116 µM (active); in the experiment with MDA-N, 0.0153 µM (active); in the experiment on Malme-3M it was < 0.0144 µM (active); in the experiment on NCI-H522, 0.0187 µM (active); in the experiment with OVCAR-3 it was < 0.0385 µM (active). For the same compound, the GI50 in the experiment with OVCAR-4 is 0.0541 µM (active); in the experiment with OVCAR-8, < 0.0176 µM (active); in the experiment on PC-3 it was < 0.0391 µM (active); with SF-295, < 0.0368 µM (active); with SF-539, 0.0407 µM (active); in the experiment on SK-MEL-5 it was < 0.01 µM (active). The values for the GI50 in the experiment on SNB-19 and in the experiment with UACC-62 were 0.128 µM (active) and 0.052 µM (active), respectively.

As for `O=C(O)CP(=O)(O)O`, the GI50 in the experiment with A498, in the experiment on COLO 205, with HCC 2998, in the experiment with HOP-62, in the experiment with HOP-92 and in the experiment on LOX IMVI was > 100 µM (inactive) each time. For the same compound, the GI50 in the experiment on M14, in the experiment with MDA-MB-435, with MDA-N, in the experiment on Malme-3M, with NCI-H522 and in the experiment with OVCAR-3 was > 100 µM (inactive) in each case. The GI50 in the experiment with OVCAR-4, with OVCAR-8, in the experiment with PC-3, in the experiment with SF-295, in the experiment with SF-539 and in the experiment with SK-MEL-5 was > 100 µM (inactive) throughout. The GI50 in the experiment on SNB-19 and in the experiment on UACC-62 was > 100 µM (inactive) each time.

Take `O=C1/C(=C/c2ccc3c(c2)OCO3)CCC1CN1CCOCC1` (stereo not given): the GI50 is 14.8 µM (inactive) in the experiment on A498; 9.73 µM (inactive) with COLO 205; 8.75 µM (inactive) in the experiment with HCC 2998; 16.3 µM (inactive) in the experiment on HOP-62; 9.89 µM (inactive) in the experiment with HOP-92; 2.44 µM (inactive) with LOX IMVI. Also, the GI50 is 4.22 µM (inactive) in the experiment on M14; 14.3 µM (inactive) in the experiment on MDA-MB-435; 2.04 µM (inactive) in the experiment on MDA-N; 7.31 µM (inactive) in the experiment with Malme-3M; 1.04 µM (active) in the experiment with NCI-H522; 7.93 µM (inactive) in the experiment on OVCAR-3. Besides, the GI50 in the experiment with OVCAR-4 is 6.73 µM (inactive); in the experiment on OVCAR-8, 7.64 µM (inactive); in the experiment on PC-3, 2.17 µM (inactive); in the experiment on SF-295, 18.2 µM (inactive); in the experiment on SF-539 it was 13 µM (inactive); with SK-MEL-5, 9.16 µM (inactive). Also, the values for the GI50 in the experiment on SNB-19 and in the experiment on UACC-62 were 15.4 µM (inactive) and 9.16 µM (inactive), respectively.

`Cc1cc2c(=Cc3ccc(N(C)C)cc3)c3ccccc3n2[n+]1C`: the GI50 with A498 was 1.87 µM (inactive); in the experiment with COLO 205 it was 0.164 µM (active); in the experiment with HCC 2998 it was 0.256 µM (active); with HOP-62, 0.656 µM (active); in the experiment on HOP-92 it was 0.459 µM (active); in the experiment on LOX IMVI, 0.458 µM (active). Besides, the GI50 was 1.05 µM (active) with M14; 0.424 µM (active) in the experiment with MDA-MB-435; 0.383 µM (active) in the experiment on MDA-N; 1.08 µM (active) in the experiment with Malme-3M; 0.335 µM (active) with NCI-H522; 0.313 µM (active) with OVCAR-3. Further, the GI50 with OVCAR-4 is 0.641 µM (active); in the experiment with OVCAR-8 it was 0.313 µM (active); in the experiment with PC-3, 0.44 µM (active); in the experiment on SF-295 it was 1.05 µM (active); in the experiment with SF-539, 0.641 µM (active); in the experiment on SK-MEL-5 it was 0.414 µM (active). In addition, the GI50 in the experiment with SNB-19 was 0.415 µM (active); in the experiment on UACC-62, 1.4 µM (inactive).

As for `CCOP(=O)(OCC)/C(F)=C/c1ccccc1`, the GI50 in the experiment on A498, in the experiment with COLO 205, in the experiment on HCC 2998, in the experiment with HOP-62, in the experiment on HOP-92 and in the experiment on LOX IMVI was > 100 µM (inactive) in each case. Besides, the GI50 with M14, in the experiment with MDA-MB-435, with MDA-N, in the experiment with Malme-3M, in the experiment on NCI-H522 and in the experiment with OVCAR-3 was > 100 µM (inactive) throughout. The GI50 with OVCAR-4, with OVCAR-8, in the experiment on PC-3, with SF-295, with SF-539 and in the experiment with SK-MEL-5 was > 100 µM (inactive) in each case. Besides, the GI50 in the experiment on SNB-19 and with UACC-62 was > 100 µM (inactive) throughout.
